Laboratory results reported in US20020028938A1, “Prostaglandin endoperoxide H synthase biosynthesis inhibitors” (priority 1997, published 2002).

Key:
[1] = biological target: T1, recombinant human Cox-2 (r-hu Cox-2) (Homo sapiens, UniProt P35354); assay: Recombinant human PGHS-2 enzyme assay (RHUCX2); format: biochemical; settings: for IC50: read-out: RHUCX2 IC50 (parenthetical value)
T1 construct: made in house; host or cells: baculovirus/Sf9 insect cells (microsomes)
T1 sequence (P35354 18-604): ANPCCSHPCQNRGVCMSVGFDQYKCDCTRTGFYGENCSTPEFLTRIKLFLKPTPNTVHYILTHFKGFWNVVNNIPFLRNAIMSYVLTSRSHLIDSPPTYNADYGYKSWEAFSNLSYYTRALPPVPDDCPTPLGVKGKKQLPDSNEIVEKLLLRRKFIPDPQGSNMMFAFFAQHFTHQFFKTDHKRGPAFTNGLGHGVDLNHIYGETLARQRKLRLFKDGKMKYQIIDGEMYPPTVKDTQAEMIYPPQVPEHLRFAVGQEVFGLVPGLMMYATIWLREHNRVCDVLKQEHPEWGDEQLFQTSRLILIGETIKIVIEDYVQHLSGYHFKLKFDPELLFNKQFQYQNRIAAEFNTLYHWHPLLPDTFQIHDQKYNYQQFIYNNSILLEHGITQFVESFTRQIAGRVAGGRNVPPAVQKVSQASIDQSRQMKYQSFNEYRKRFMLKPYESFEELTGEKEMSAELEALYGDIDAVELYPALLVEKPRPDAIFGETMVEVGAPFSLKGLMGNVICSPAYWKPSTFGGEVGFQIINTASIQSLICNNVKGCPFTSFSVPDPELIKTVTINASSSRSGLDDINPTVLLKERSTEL
Method: (§1) To compare the mean responses of the treatment groups, analysis of variance was applied. Percent inhibition values were determined by comparing the individual treatment mean values to the mean of the control group. Linear regression was used to estimate IC50's/ED50's in appropriate assays.
(§2) EIA reagents for prostaglandin determination were purchased from Perseptive Diagnostics, (Cambridge, Mass.). Prostaglandin E2 (PGE2) levels in lavage fluids were determined after the samples were dried under nitrogen and reconstituted with assay buffer. PGE2 levels in enzyme assays or cell culture media were measured against standards prepared in the same milieu. The immunoassays were conducted as recommended by the manufacturer. The EIA was conducted in 96 well microtiter plates (Nunc Roskilde, Denmark) and optical density was measured using a microplate reader (Vmax, Molecular Devices Corp., Menlo Park, Calif.).
(§3) Inhibition of prostaglandin biosynthesis in vitro was evaluated using recombinant human Cox-1 (r-hu Cox1) and Cox-2 (r-hu Cox-2) enzyme assays. […] The reaction was allowed to run for 2.5 minutes at room temperature prior to quenching with HCl and neutralization with NaOH. PGE2 production in the presence and absence of the drug was determined by EIA analysis. The EIA was conducted in 96 well microtiter plates (Nunc Roskilde, Denmark) and optical density was measured using a microplate reader (Vmax, Molecular Devices Corp., Menlo Park, Calif.). EIA reagents for prostaglandin determination were purchased from Perseptive Diagnostics (Cambridge, Mass.). PGE2 levels were measured against standards prepared in the same milieu. The immunoassays were conducted as recommended by the manufacturer.

[2] = biological target: T2, recombinant human Cox-1 (r-hu Cox1) (Homo sapiens, UniProt P23219); assay: Recombinant human PGHS-1 enzyme assay (RHUCX1); format: biochemical
T2 construct: made in house; host or cells: baculovirus/Sf9 insect cells (microsomes)
T2 sequence (P23219 24-599): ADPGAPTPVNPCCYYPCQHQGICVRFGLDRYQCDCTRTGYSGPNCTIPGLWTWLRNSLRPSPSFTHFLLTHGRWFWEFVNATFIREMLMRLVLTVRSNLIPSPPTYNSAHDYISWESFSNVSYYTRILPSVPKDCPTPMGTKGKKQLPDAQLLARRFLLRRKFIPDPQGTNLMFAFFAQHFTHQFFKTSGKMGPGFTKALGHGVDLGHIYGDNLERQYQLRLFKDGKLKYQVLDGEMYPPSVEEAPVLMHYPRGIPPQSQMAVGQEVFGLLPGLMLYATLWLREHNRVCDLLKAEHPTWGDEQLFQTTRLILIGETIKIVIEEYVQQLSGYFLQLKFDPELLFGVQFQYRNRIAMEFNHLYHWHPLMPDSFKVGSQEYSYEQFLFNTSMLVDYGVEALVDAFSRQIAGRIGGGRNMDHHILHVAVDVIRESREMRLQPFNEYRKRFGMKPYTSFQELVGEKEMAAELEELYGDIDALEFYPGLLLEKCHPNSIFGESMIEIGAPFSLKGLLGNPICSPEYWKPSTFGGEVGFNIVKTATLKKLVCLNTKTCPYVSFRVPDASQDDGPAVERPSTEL
Method: as §1, §2, §3

[3] = 0.1 μM, read-out: RHUCX2 % Inh. at Dose
[4] = 1 μM, read-out: RHUCX2 % Inh. at Dose
[5] = 100 μM, read-out: RHUCX1 % Inh. at Dose

Row | RHUCX2 % Inh. at Dose (μM) ([1]; 0.1 μM) | RHUCX2 % Inh. at Dose (μM) ([1]; 1 μM) | RHUCX1 % Inh. at Dose (μM) ([2]; 100 μM) | Compound | other results
1 | 92 @ 0.1% | 99 @ 1% | 0 @ 100% | CS(=O)(=O)c1ccc(-c2cnn(Cc3ccc(Cl)s3)c(=O)c2-c2ccc(F)cc2)cc1 [Example 42] | –
2 | 17 @ 0.1% | 49 @ 1% | 13 @ 100% | CS(=O)(=O)c1ccc(-c2cnn(CC(=O)c3ccc(F)cc3F)c(=O)c2-c2ccc(F)cc2)cc1 [Example 41, 2-(2,4-Difluorophenacyl)-4-(4-fluorophenyl)-5-[4-(methylsulfonyl)phenyl]-3(2H)-pyrdazinone] | –
3 | – | – | 15 @ 100% | 2-(2,2,2-Trifluoroethyl)-4-(4-methoxyphenoxy)-5-[4-(methylsulfonyl)phenyl]-3(2H)-pyridazinone [Example 262] | IC50 [1]: 432 nM
4 | – | 49 @ 1% | 1 @ 100% | CS(=O)(=O)c1ccc(-c2cnn(-c3cccc(Cl)c3)c(=O)c2C2CCCC2)cc1 [Example 362, 2-(3-Chlorophenyl)-4-(cyclopentyl)-5-[4-(methylonylsulfonyl)phenyl]-(2H)-pyridazinone] | RHUCX2 % Inh. at Dose (μM) ([1]; 10 μM): 84 @ 10%
5 | – | – | 7 @ 100% | CS(=O)(=O)c1ccc(-c2cnn(Cc3ccsc3)c(=O)c2-c2ccc(F)cc2)cc1 [Example 60] | RHUCX2 % Inh. at Dose (μM) ([1]; 1,000 μM): 100 @ 1,000%
6 | 50 @ 0.1% | 93 @ 1% | 5 @ 100% | CS(=O)(=O)c1ccc(-c2cnn(-c3cccc(Br)c3)c(=O)c2Oc2ccc(F)cc2)cc1 [Example 110] | –
7 | 58 @ 0.1% | 75 @ 1% | 7 @ 100% | CC(C)=CCCOc1c(-c2ccc(S(C)(=O)=O)cc2)cnn(-c2ccc(F)cc2)c1=O [Example 424] | RHUCX2 % Inh. at Dose (μM) ([1]; 0.01 μM): 33 @ 0.01%
8 | – | – | 19 @ 100% | CS(=O)(=O)c1ccc(-c2cnn(CC#Cc3ccccc3)c(=O)c2-c2ccc(F)cc2)cc1 [Example 21, 2-(Phenylpropargyl)-4-(4-fluorophenyl)-5-[4-(methylsulfonyl)phenyl]-3(2H)-pyridazinone] | IC50 [1]: 920 nM
9 | 68 @ 0.1% | – | 0 @ 100% | C=C(C)Cn1ncc(-c2ccc(S(C)(=O)=O)cc2)c(-c2ccc(F)cc2)c1=O [Example 23, 2-(Methyl-2-propenyl)-4-(4-fluorophenyl)-5-[4-(methylsulfonyl)phenyl]-3(2H)-pyridazinone] | RHUCX2 % Inh. at Dose (μM) ([1]; 0.01 μM): 27 @ 0.01%

Second part, the compound before the results:

Row | Compound | RHUCX2 % Inh. at Dose (μM) ([1]; 0.1 μM) | RHUCX2 % Inh. at Dose (μM) ([1]; 1 μM) | RHUCX1 % Inh. at Dose (μM) ([2]; 100 μM) | other results
10 | CS(=O)(=O)c1ccc(-c2cnn(CC(F)(F)F)c(=O)c2Nc2ccc(F)cc2F)cc1 [Example 314] | – | 4 @ 1% | 7 @ 100% | RHUCX2 % Inh. at Dose (μM) ([1]; 10 μM): 51 @ 10%
11 | CS(=O)(=O)c1ccc(-c2cnn(-c3ccc(F)cc3)c(=O)c2C#Cc2ccccc2)cc1 [Example 231, 2-(4-Fluorophenyl)-4-(pheylethynyl)-5-[4-(methylsulfonl)phenyl]-3(2H)-pyridazinone] | 68 @ 0.1% | 90 @ 1% | 7 @ 100% | –
12 | CS(=O)(=O)c1ccc(-c2cnn(Cc3ccccc3)c(=O)c2-c2cc3ccccc3o2)cc1 [Example 318, 2-Benzyl-4-(2-benzofuranyl)-5-[4-(methylsulfonyl)phenyl]-3(2H)-pyridazinone] | – | – | – | inhibition at 0.1 µM [1, 3]: 77%; inhibition at 1 µM [1, 4]: 97%; inhibition at 100 µM [2, 5]: 23%
13 | CC(C)CCc1c(-c2ccc(S(C)(=O)=O)cc2)cnn(CC(F)(F)F)c1=O [Example 209] | 55 @ 0.1% | 79 @ 1% | 0 @ 100% | RHUCX2 % Inh. at Dose (μM) ([1]; 0.01 μM): 40 @ 0.01%
14 | CS(=O)(=O)c1ccc(-c2cnn(CC(F)=C(F)F)c(=O)c2-c2ccc(F)cc2)cc1 [Example 88] | 35 @ 0.1% | – | 0 @ 100% | RHUCX2 % Inh. at Dose (μM) ([1]; 1,000 μM): 97 @ 1,000%
15 | CS(=O)(=O)c1ccc(-c2cnn(CC(F)(F)F)c(=O)c2OC2CCCCC2)cc1 [Example 84] | – | – | – | RHUCX2 % Inh. at Dose (μM) ([1]; 0.3 μM): 87 @ 0.3%; RHUCX1 % Inh. at Dose (μM) ([2]; 1 μM): 9 @ 1%; RHUCX1 % Inh. at Dose (μM) ([2]; 10 μM): 49 @ 10%
16 | Cc1nn(CC(F)(F)F)c(=O)c(-c2ccc(F)cc2)c1-c1ccc(S(C)(=O)=O)cc1 [Example 64] | 36 @ 0.1% | 34 @ 1% | – | RHUCX1 % Inh. at Dose (μM) ([2]; 1 μM): 68 @ 1%
17 | O=c1c(-c2ccc(F)cc2)c(-c2ccc(S(=O)(=O)C(F)(F)F)cc2)cnn1Cc1ccccc1 [Example 260, 2-Benzyl-4-(4-fluorophenyl)-5-[4-(trifluoromethylsulfonyl)phenyl]-3(2H)-pyridazinone] | – | – | – | inhibition at 10 µM ([1]; 10 μM, read-out: RHUCX2 % Inh. at Dose): 2%; inhibition at 100 µM [2, 5]: 8%
18 | CC(C)COc1c(-c2ccc(S(N)(=O)=O)c(F)c2)cnn(-c2cccc(Cl)c2)c1=O [Example 412] | – | – | – | IC50 [1]: 2 nM; inhibition at 100 µM [2, 5]: 31%
19 | COc1ccc(CCOc2c(-c3ccc(S(C)(=O)=O)cc3)cnn(CC(F)(F)F)c2=O)cc1OC [Example 272] | 55 @ 0.1% | 70 @ 1% | 0 @ 100% | –
20 | CC(C)CCCc1c(-c2ccc(S(C)(=O)=O)cc2)cnn(-c2cccc(Cl)c2)c1=O [Example 421, 2-(3-Chlorophenyl)-4-(4-methylpentyl)-5-[4-(methylsulfonyl)phenyl]-3(2H)-pyridazinone] | – | – | – | inhibition at 0.01 µM ([1]; 0.01 μM, read-out: RHUCX2 % Inh. at Dose): 38%; inhibition at 0.1 µM [1, 3]: 81%; inhibition at 1 µM [1, 4]: 92%; IC50 ([2]; read-out: RHUCX1 IC50 (parenthetical value)): 269 nM
21 | CS(=O)(=O)c1ccc(-c2cnn(Cc3ccccc3)c(=S)c2-c2ccc(F)cc2)cc1 [Example 32, 2-Benzyl-4-(4-fluorophenyl)-5-[4-(methylsulfonyl)phenyl]-3(2H)-pridazinethione] | 83 @ 0.1% | 96 @ 1% | 20 @ 100% | –
22 | COc1c(F)cc(-c2c(-c3ccc(S(C)(=O)=O)cc3)cnn(CC(F)(F)F)c2=O)cc1F [Example 220, 2-(2,2,2-Trifluoroethyl)-4-(3,5-difluoro-4-methoxyphenyl)-5-[4-(methylsulfonyl)phenyl]-3(2H)-pyridazinone] | – | – | – | inhibition at 0.1 µM [1, 3]: 90%; inhibition at 1 µM [1, 4]: 96%; inhibition at 1 µM ([2]; 1 μM, read-out: RHUCX1 % Inh. at Dose): 38%; inhibition at 100 µM [2, 5]: 51%
23 | Cc1ccsc1-n1ncc(-c2ccc(S(C)(=O)=O)cc2)c(-c2ccc(F)cc2)c1=O [Example 95, 2-(3-Methyl-2-thienyl)-4-(4-fluorophenyl)-5-[4-(methylsulfonyl)phenyl]-3(2H)-pyridazinone] | – | – | – | melting point: 215 to 217 °C
24 | CSc1cc(-n2ncc(-c3ccc(S(C)(=O)=O)cc3)c(-c3ccc(F)cc3)c2=O)ccc1F [Example 259, 2-[4-Fluoro-3-(methylthio)phenyl]-4-(4-fluorophenyl)-5-[4-(methylsulfonyl)phenyl]-3(2H)-pyridazinone] | – | – | – | melting point: 105 to 107 °C
25 | CC(C)(O)CCOc1c(-c2ccc(S(C)(=O)=O)cc2)cnn(-c2ccc(Cl)c(Cl)c2)c1=O [Example 532, 2-(3,4-Dichlorophenyl)-4-(3-hydroxy-3-methyl-1-butoxy)-5-[4-(methylsulfonyl)phenyl]-3(2H)-pyridazinone] | – | – | – | melting point: 118 to 120 °C
26 | CS(=O)(=O)c1ccc(-c2cnn(-c3ccc(F)cc3)c(=O)c2COc2ccccc2)cc1 [Example 196, 2-(4-Fluorophenyl)-4-phenoxymethyl-5-[4-(methylsulfonyl)phenyl]-3(2H)-pyridazinone] | – | – | – | melting point: 42 to 75 °C
27 | CS(=O)(=O)c1ccc(-c2cnn(CC(F)(F)F)c(=O)c2Nc2ccc(F)cc2)cc1 [Example 316, 2-(2,2,2-Trifluoroethyl)-4-(4-fluoroanilino)-5-[4-(methylsulfonyl)phenyl]-3(2H)-pyridazinone] | – | – | – | melting point: 158 to 160 °C
